Results: publication PMC11219860, “A chemogenetic approach for dopamine imaging with tunable sensitivity” (Nature Communications, 2024)
Read-outs that look alike come from different tables or passages of the source.

What was measured:
Open field behavior = type: in vivo, mouse
Experimental: For combined locomotion/photometry experiments in the open field (OF) in tethered mice, a 50 × 50 cm arena was used. Fiber photometry was conducted using a Doric photometry rig combined with a filter/mirror minicube set (Doric Lenses), as above. […] Data were sampled at 122 Hz. […] Mice were habituated to the chamber for 3 consecutive days (30 minutes per day). On experimental days, locomotor activity was video recorded and synchronized with fiber photometry signal recording. The baseline DA signal was recorded for 20 minutes, then the mouse received i.p. injection of vehicle or DETQ (10 mg/kg) in interleaved sessions. Following injection, the DA signal was recorded for an additional 90 minutes. The OF chamber was cleaned with ethanol and water between mice. Recording sessions were repeated at 48 hours intervals. Mouse behavior as well as photometry signals were analyzed with a custom-written MATLAB script. Mouse locomotion was computed using the body center point of the animal. The center zone of the arena was defined automatically during behavior data analysis as the 25 × 25 cm square with the central point aligned to the center of the open field. The distance moved and time spent in the center zone were quantified in 10 minutes time bins and as the total during the 90 minutes after ip injections. To test the dose-dependent effects of DETQ on locomotion in untethered mice, mice were injected i.p. with vehicle, DETQ (3, 10 or 30 mg/kg) or cocaine (20 mg/kg) while their locomotor activity was recorded in an OF arena (60 x 60 cm) for 45 min. Videos were recorded with a Logitech C270 camera and analyzed with DeepLabCut (version 2.1.8.2)[84] on an existing open field network. Representative traces were generated with the Anymaze (v7.2) software (Stoelting Co.).

dLight1.3b = assay: Cue-reward Pavlovian conditioning with NAc dLight1.3b photometry; type: in vivo, mouse
Experimental: After habituating mice to the experimental chamber (4 consecutive days for 5–10 min) mice were food restricted to 90% ad libitum body weight. […] During learning sessions, the delay between CS and US was increased every training day from 2 to 10 seconds until mice became expert. […] After i.p. injection, mice were placed into an operant chamber. 3–4 electric footshocks (0.4 mA for 1 second) were delivered 10 to 25 min post vehicle or DETQ with variable intervals (randomly chosen from a uniform distribution between 240 and 360 seconds or between 120 and 240 seconds) without predictive cues. Mouse freezing behavior was monitored with a video camera (C310 Logitech,10 frames per second) positioned above the recording chamber and controlled by the Synapse software. […] Freezing was defined as the complete cessation of all movement for at least 1 s during a 25-min testing duration.
For long-term recordings during optogenetic stimulation or chemogenetic inhibition linear fit was calculated across the entire recording or across the vehicle epoch; for event-related experiments fit was performed on fluorescent data obtained in the −60 to +60 s around opto events or −5 to −1 s around behavioral events. […] DA event-related responses were quantified by computing the value at the transient’s peak value and the AUC in the 0 to 10 s or 0 to 60 s period post-event onset. […] The maximal peak value of Veh-normalized ΔF/F0 after opto-onset was plotted over time and the plateau of maximal response was determined by averaging peak opto responses 5, 10, 15 and 20 min post-DETQ. We then looked at trials between 5 and 65 min post-DETQ to determine which trials belonged to a ‘temporal window for stable imaging’. […] AUC of the baseline was calculated within the +5 to +40 minutes time window post ip injection. For detection of spontaneous DA peaks the calculated ΔF/F0 was smoothed with a 50 datapoints (410 milliseconds) moving window, and the built-in Matlab function findpeaks was applied, with the threshold for minimal peak prominence set to 0.5% ΔF/F0.

AlloLite-ctr = AlloLite-ctr (Homo sapiens, UniProt P21728, L143A/R130Q); type: cell-based
Experimental: Cells were transfected at 50–60% confluency in glass-bottomed dishes (either individually or in 24-well plates) using the Effectene transfection kit (Qiagen) according to manufacturer instructions, and imaged 24–48 h after transfection. The Flp-In™ T-REx™ 293 cells (Thermo Fisher) with a stably integrated dLight1.3b cassette[48] were cultured as follows: the cells were cultured using HEK293T cell medium with the addition of Blasticidin (15 µg/ml) and Hygromycin B (200 µg/ml). To induce the expression of dLight1.3b, doxycycline (500 ng/ml) was added to the culture medium for 24–48 hours. Before imaging, cells were rinsed with 1 mL of Hank’s Balanced Salt Solution (HBSS, Life Technologies) supplemented with Ca^2+ (2 mM) and Mg^2+ (1 mM), and imaged at room temperature with a final HBSS volume of either 100 µL for each individual 1.5 cm glass bottom dish, or 500 µL for 24-well plates. […] For quantification, except otherwise noted, regions of interest (ROI) were selected manually using the threshold function of Fiji to isolate the cell membrane. Sensor response (∆F/F) was calculated as the following: (F(t)-F_base)/F_base with F(t) being the ROI fluorescence value at each time point (t), and F_base being the mean fluorescence of the 10-time points immediately prior to ligand addition.

5-HT2B = tested on: 5-HT2B; parameters: method as in Svensson et al., 2017; Hao et al., 2019; conditions: 10 uM of DETQ; ref Svensson et al., 2017; Hao et al., 2019; cited from earlier work
msDRD1 = molecular target: T1, msDRD1 (Mus musculus, UniProt Q61616); conditions: cited from earlier work
T1 construct: expressed in transfected cells; host or cells: HEK293T
T1 sequence (Q61616 whole entry): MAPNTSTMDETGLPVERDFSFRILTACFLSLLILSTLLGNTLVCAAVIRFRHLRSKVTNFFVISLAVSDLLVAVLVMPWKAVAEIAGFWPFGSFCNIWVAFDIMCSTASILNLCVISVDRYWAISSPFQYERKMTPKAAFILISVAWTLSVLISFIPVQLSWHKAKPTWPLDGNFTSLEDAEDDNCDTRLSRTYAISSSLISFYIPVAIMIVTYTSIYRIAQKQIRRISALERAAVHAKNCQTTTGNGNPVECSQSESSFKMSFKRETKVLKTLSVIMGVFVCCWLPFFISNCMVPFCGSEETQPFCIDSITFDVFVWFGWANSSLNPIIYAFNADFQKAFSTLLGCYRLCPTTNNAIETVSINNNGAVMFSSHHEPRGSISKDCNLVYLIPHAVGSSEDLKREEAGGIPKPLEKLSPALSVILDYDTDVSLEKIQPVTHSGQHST

[1] = parameters: method as in Bruns et al., 2018; conditions: ref Bruns et al., 2018, cited from earlier work
[2] = NAc, DETQ 10 mg/kg vs vehicle days

Question: Which “total locomotion or time spent in the center” value (Open field behavior; tethered mice, DETQ 10 mg/kg) does the source give for `C[C@H]1c2cccc(C(C)(C)O)c2C[C@H](CO)N1C(=O)Cc1c(Cl)cccc1Cl` [DETQ, 2-(2,6-dichlorophenyl)-1-((1S,3R)-3-(hydroxymethyl)-5-(2-hydroxypropan-2-yl)-1-methyl-3,4-dihydroisoquinolin-2(1H)-yl)ethan-1-one] here?
Answer: did not observe any effect

Question: And the “locomotion in open field” value (Open field behavior; untethered mice, 45 min, DETQ 3, 10, 30 mg/kg i.p., cocaine 20 mg/kg)?
Answer: did not have a significant effect

Question: What about the “latency to lick and overall licking activity” value (dLight1.3b; DETQ 10 mg/kg) of the same molecule?
Answer: not affected

Question: What about the “enhancement factor of CS-associated DA peak amplitude” value (dLight1.3b; [2]) of the same molecule?
Answer: approximately 2 fold

Question: And the “enhancement factor of US-associated DA peak amplitude” value (dLight1.3b; [2])?
Answer: ~1.5 fold

Question: And the α factor (AlloLite-ctr)?
Answer: 1.6

Question: What about the “maximal fluorescent response to a saturating concentration of DA” value (AlloLite-ctr; DA 100 µM, wide range of DETQ concentrations) of the same molecule?
Answer: not affected

Question: And the “inhibition of ligand binding” value (5-HT2B)?
Answer: 48%

Question: What about the Kb (msDRD1) of the same molecule?
Answer: 312 nM

Question: And the “fold less potent on msDRD1 than on hmDRD1” value (msDRD1)?
Answer: > 30 fold

Question: What about the “selectivity for human vs mouse D1 in potentiator mode” value (msDRD1; potentiation of dopamine induced activation of cAMP, ref Hao et al., 2019, Wang et al., 2018) of the same molecule?
Answer: 30 x

Question: What about the “partial potentiation of dopamine (% of max potentiation)” value (msDRD1; rodent (rat or mouse), ref Hao et al., 2019, Wang et al., 2018) of the same molecule?
Answer: 45-53%

Question: And the “brain levels of the histamine metabolites” value ([1]; hD1 mice, same dose)?
Answer: significant elevations

Question: What about the “brain levels of the histamine metabolites” value ([1]; wild type mice, 10 mg/kg PO) of the same molecule?
Answer: did not change
